Laboratory results published in patent publication US4845123A, “Reduction in vivo of the inappropriate levels of endogenous and environmental-derived compounds by sustained-release inhibitors of β- g” (priority 1985, dated 1989).

What was measured:
bladder tumor = conditions: Uemura et al. 1975; cited from earlier work
[1] = tested on: tumor initiation by 7,12-dimethylbenzanthracene (DMBA); conditions: Walaszek et al. 1984; cited from earlier work
[2] = Furuno et al. 1975; cited from earlier work
[3] = acute toxicity (weight loss) of N-methylnitrosourea; assay type: in vivo, rat; conditions: 21 days after treatment with MNU
Organ DNA = experiment: in vivo covalent binding of [14C]BP to organ DNA; design: species or system rat; conditions: for Covalent Binding Index (of BP), +DAGDL: DAGDL 1.5 mmol/kg 0.5 hours before [14C]BP; for inhibition at 1500 µmol/kg: Rattus norvegicus, DAGDL 1.5 mmol/kg
Experimental: Experimental rats were pretreated 0.5 hours earlier with one dose of 1.5 mmol/kg body weight of DAGDL which was administered by stomach tube as a suspension in 1.0 ml of sesame oil, while control rats received the vehicle only. The experimental and control group contained 2 rats each. Heart, kidney, liver, lung and mammary gland were removed under ether anesthesia 48 hours post-administration of BP. The DNA was isolated immediately and purified by chloroform phenol extraction of organ homogenates. In the case of mammary gland, the homogenate was treated with collagenase II. Following purification with ribonuclease A and protease K, the DNA concentration was estimated by U.V. absorption and the bound radioactivity was determined by radioassay in liquid scintillant.
In this experiment 50 day old female rats of the Sprague Dawley strain received 1.5 mmol/kg of DAGDL 0.5 hours before the intraperitoneal injection of 7.9 μmol/kg of [^14 C]BP. The DNA was extracted from the tissues and radioassayed by established procedures.

serum β-glucuronidase = target: T1, serum β-glucuronidase (Rattus norvegicus, UniProt P06760); conditions: Iida et al. 1965; cited from earlier work
T1 sequence (P06760 23-648): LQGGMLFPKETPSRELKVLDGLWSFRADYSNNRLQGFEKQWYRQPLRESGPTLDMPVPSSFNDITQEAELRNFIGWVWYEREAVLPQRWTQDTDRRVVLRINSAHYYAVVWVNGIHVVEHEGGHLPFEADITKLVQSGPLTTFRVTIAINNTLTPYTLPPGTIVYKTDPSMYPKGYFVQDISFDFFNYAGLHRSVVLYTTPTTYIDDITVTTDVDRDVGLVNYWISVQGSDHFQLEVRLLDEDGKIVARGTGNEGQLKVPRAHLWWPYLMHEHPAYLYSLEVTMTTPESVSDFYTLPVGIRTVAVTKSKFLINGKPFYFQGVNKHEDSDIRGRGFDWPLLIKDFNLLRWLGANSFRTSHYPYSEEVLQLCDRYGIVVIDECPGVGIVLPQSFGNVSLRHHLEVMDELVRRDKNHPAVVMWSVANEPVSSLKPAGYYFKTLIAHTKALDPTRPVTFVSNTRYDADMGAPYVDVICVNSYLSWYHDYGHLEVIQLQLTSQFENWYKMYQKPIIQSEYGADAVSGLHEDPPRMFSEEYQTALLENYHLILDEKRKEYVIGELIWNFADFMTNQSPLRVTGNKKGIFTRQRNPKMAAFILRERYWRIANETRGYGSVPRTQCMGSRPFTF

[4] = tested on: DMBA-induced mammary tumors; experiment: DMBA-induced mammary tumorigenesis, initiation, promotion and tumor regression; assay type: in vivo, rat
Experimental: Fifty day old female Sprague Dawley rats were utilized in these experiments. For induction of mammary tumors the rats received a single dose of 130 mg/kg of DMBA in sesame oil by gavage. Animals pretreated with CGT received 4.5 mmoles/kg of CGT in sesame oil at 3 hours and again at 0.5 hours before administration of the carcinogen. This protocol tests the inhibitory effect of CGT on the initiation phase. Alternatively, the rats were fed a standard chow diet supplemented with 10% CGT (w/w). To evaluate the effect of CGT on the promotion phase the rats were changed from the chow diet to the CGT supplemented diet two weeks after treatment with DMBA. One mole of glucarate is converted to approximately one-third of a mole of GL in an equilibrated aqueous solution.
The mammary tumors were measured with micrometer calipers. Two measurements were taken, the longest dimension and dimension at right angles to this parameter.
At this time, the rats were transferred from a chow diet to a chow diet supplemented with 10% CGT. This diet was continued until the termination of the experiment. […] Three groups each, with eighteen 50 day old rats, were given intragastrically a single dose of 20 mg of DMBA in 1.0 ml of sesame oil. One group ( -- ) received 4.5 mmoles/kg of CGT by stomach tube at 3 hours and again at 0.5 hours before DMBA. A second (control) group (.circle.O--O.circle.) received vehicle (i.e. sesame oil) only at the same two time periods. Both of these groups were then put on regular chow diet.

Morris Hepatoma 7777 = experiment: growth of transplanted Morris Hepatoma 7777; assay type: in vivo, rat; conditions: 2% CGT diet from one week before transplant, male Buffalo rats
Experimental: One group of male Buffalo rats was put on 2% CGT diet one week before the hepatoma transplant, while the other group of rats (controls) was kept on the regular chow diet. A minimum number of Morris Hepatoma 7777 cells consistent with tumor growth were innoculated subcutaneously in the left flank of all rats. Tumor diameters were measured at least twice weekly, and tumor volume was calculated.

## CC(=O)O[C@@H]1C(=O)O[C@H]2[C@@H]1OC(=O)[C@@H]2OC(C)=O [DAGDL, 2,5-di-O-acetyl-D-glucaro-1,4;6,3-dilactone]
Bladder tumor
  inhibition of N-butyl-N-(4-butanol)nitrosamine-mediated bladder tumor: unsuccessful
[1]
  effect on initiation of tumor by DMBA: inhibited
[2]
  clearance of antibiotics which cause kidney damage: inconclusive results
[3]
  difference in toxicity-induced weight loss of DAGDL-treated and non-treated rats: approximately 100 g
Organ DNA; Heart
  Covalent Binding Index (of BP), +DAGDL: 10
  inhibition at 1500 µmol/kg: 44%
Organ DNA; Kidney
  Covalent Binding Index (of BP), +DAGDL: 12
  inhibition at 1500 µmol/kg: 69%
Organ DNA; Liver
  Covalent Binding Index (of BP), +DAGDL: 9
  inhibition at 1500 µmol/kg: 63%
Organ DNA; Lung
  Covalent Binding Index (of BP), +DAGDL: 8
  inhibition at 1500 µmol/kg: 72%
Organ DNA; Mammary gland
  Covalent Binding Index (of BP), +DAGDL: 20
  inhibition at 1500 µmol/kg: 47%
Serum β-glucuronidase
  potency as in vivo β-glucuronidase inhibitor: potent

## O=C([O-])[C@@H](O)[C@@H](O)[C@H](O)[C@@H](O)C(=O)[O-].[Ca+2] [CGT, calcium D-glucarate]
[4]; 10% CGT diet
  effect on DMBA-induced tumors which escape the anti-promoter effects: significant regression
  reduction of the overall tumor incidence due to tumor regression: 14%
[4]; 10% CGT diet from 2 weeks post-DMBA
  effect on promotion phase of DMBA-induced mammary carcinogenesis: significantly inhibits the promotion phase
[4]; 10% CGT diet from 2 weeks post-DMBA (promotion phase), by 28 weeks
  tumor induction as percent of that in the controls: 30%
[4]; 10% CGT diet, 16 wks (spread ± 0.57 on separate line)
  Average Tumor Volume: 2.82 cm^3
[4]; 10% CGT diet, 20 wks (spread ± 0.76 on separate line)
  Average Tumor Volume: 2.17 cm^3
[4]; 10% CGT diet, 24 wks (spread ± 0.87 on separate line)
  Average Tumor Volume: 1.87 cm^3
[4]; 10% CGT diet, 28 wks
  Average Tumor Volume: 1.20 ± 0.82 cm^3
[4]; 10% CGT diet, 32 wks
  Average Tumor Volume: 1.02 ± 0.77 cm^3
[4]; 10% CGT diet, average, between 18 and 28 days (so in the source)
  reduction in percentage of rats with tumors: 70%
[4]; 10% CGT supplemented diet beginning 2 weeks post-DMBA treatment
  overall tumor incidence: 33%
[4]; CGT diet supplemented group, essentially all rats with tumors
  tumors per rat in rats with tumors: only one tumor per rat
Morris Hepatoma 7777
  tumor growth compared with control group: slightly slower
